From US20020142463A1, “Method for the mass propagation of adventitious roots of ginseng, camphor ginseng and wild ginseng by tissue culture and the improvement of their saponin content” (priority 2001, published 2002)

Tests used:
[1] = tested on: adventitious root of cultivate ginseng, camphor ginseng, wild ginseng; assay: Effect of jasmonic acid and methyl jasmonic acid treatment on the saponin content of adventitious root in balloon shape bioreactor; assay type: cell-based
Source text: (§1) The measurement of saponin content was followed by the standard method for the analysis of ginseng constituent of The Korean Ginseng Research Institute.
While culturing the adventitious root of cultivate ginseng, camphor ginseng, wild ginseng in a balloon shape bioreactor, the saponin content in the adventitious root was examined at the initial time, 10 days before harvest, and after harvest with the treatment of various concentrations of jasmonic acid and methyl jasmonic acid.
The experiment was conducted under the conditions of pH 6.0 and the MS media added with 3% sugar and 2.0 mg/L IBA.
The saponin content in the adventitious root was measured for the root treated by various concentrations of jamonic acid or methyl jamonic acid of 0, 1, 2, 5, 10 mg/L 10 days before harvest and the root washed by tap water obtained from the MS media not containing sugar or the treated root by tap water which includes jasmonic acid or methyl jasmonic acid, for one week.

[2] = tested on: root tissue of cultivated ginseng, camphor ginseng, and wild ginseng; assay: Effect of growth regulator pretreatment before culturing on saponin content and saponin ratio; assay type: cell-based; settings: pretreatment 1-10 hours before culturing at 1-100 mg/L
Experimental: as §1
Among growth regulators, BA(benzyl adenine) 2iP, zeatin, […], TDZ, kinetin which are included in cytokinin groups was treated 1-10 hours before culturing the root tissue of cultivated ginseng, camphor ginseng, and wild ginseng at the concentration of 1-100 mg/L. Immediate after the pretreatment the saponin and the diol:triol content were compared and analyzed.

[3] = tested on: adventitious root of wild ginseng; assay: Effect of added growth regulator on adventitious root propagation (wild ginseng); assay type: cell-based; design: unit not given here; settings: MS media, 3% sugar, pH6.0
Experimental: (§2) After adding 3% of sugar to the MS media and adjusting pH6.0, basal medium were made by adding 1 mg/L, 2 mg/L, 3 mg/L, 5 mg/L of each of the IBA, NAA and BSAA as auxin. These basal mediums were divided into a 1 L flask and a 5 L bioreactor.

[4] = tested on: adventitious root of cultivated ginseng; assay: Effect of added growth regulator on adventitious root propagation (cultivated ginseng); assay type: cell-based, Panax ginseng C.A. Meyer; design: Cultivated ginseng (Increment rate of biomass): unit not given here; settings: for Cultivated ginseng (Increment rate of biomass): MS media, 3% sugar, pH6.0
Experimental: as §2

## CC/C=C\C[C@H]1C(=O)CC[C@@H]1CC(=O)O [Jasmonic acid, jasmonic acid]
[1]; jasmonic acid 1 mg/L
  Ginsenoside content Rb Group: 13.29 mg. 1 g drymass
  Ginsenoside content Rg Group: 2.83 mg. 1 g drymass
  Ginsenoside content Total content: 16.09 mg. 1 g drymass
  Rb/Rg: 4.68
[1]; jasmonic acid 2 mg/L
  Ginsenoside content Rb Group: 24.19 mg. 1 g drymass
  Ginsenoside content Rg Group: 4.46 mg. 1 g drymass
  Ginsenoside content Total content: 28.69 mg. 1 g drymass
  Rb/Rg: 5.45
[1]; jasmonic acid 5 mg/L
  Ginsenoside content Rb Group: 34.69 mg. 1 g drymass
  Ginsenoside content Rg Group: 4.15 mg. 1 g drymass
  Ginsenoside content Total content: 38.82 mg. 1 g drymass
  Rb/Rg: 8.43
[1]; jasmonic acid 10 mg/L
  Ginsenoside content Rb Group: 54.29 mg. 1 g drymass
  Ginsenoside content Rg Group: 5.53 mg. 1 g drymass
  Ginsenoside content Total content: 59.87 mg. 1 g drymass
  Rb/Rg: 9.83

## c1coc(CNc2ncnc3[nH]cnc23)c1 [kinetin]
[2]
  remarks: effect on the saponin components: zeatin show similar

## CC/C=C\CC1C(=O)CCC1CC(=O)OC (stereo not drawn) [methyl jasmonic acid]
[2]
  saponin content: 6.50
  triol/diol: 2.40

## O=C(O)CCCc1c[nH]c2ccccc12 [IBA]
[3]; growth regulator 1 mg/L
  Wild ginseng (Increment rate of biomass): 4.3
[3]; growth regulator 2 mg/L
  Wild ginseng (Increment rate of biomass): 6.8
[3]; growth regulator 3 mg/L
  Wild ginseng (Increment rate of biomass): 5.7
[3]; growth regulator 5 mg/L
  Wild ginseng (Increment rate of biomass): 4.2
[4]; growth regulator 1 mg/L
  Cultivated ginseng (Increment rate of biomass): 4.5
[4]; growth regulator 2 mg/L
  Cultivated ginseng (Increment rate of biomass): 6.7
[4]; growth regulator 3 mg/L
  Cultivated ginseng (Increment rate of biomass): 6.5
[4]; growth regulator 5 mg/L
  Cultivated ginseng (Increment rate of biomass): 3.8

## O=C(Nc1ccccc1)Nc1cnns1 [TDZ]
[2]
  remarks: effect on the saponin components: zeatin show similar

## CC(C)=CCNc1ncnc2nc[nH]c12 [2iP]
[2]
  remarks: effect on the saponin components: zeatin show similar

## O=C(O)Cc1c[se]c2ccccc12 [BSAA, benzo [b] selenienyl acetic acid]
[3]; growth regulator 1 mg/L
  Wild ginseng (Increment rate of biomass): 5.0
[3]; growth regulator 2 mg/L
  Wild ginseng (Increment rate of biomass): 12.5
[3]; growth regulator 3 mg/L
  Wild ginseng (Increment rate of biomass): 11.7
[3]; growth regulator 5 mg/L
  Wild ginseng (Increment rate of biomass): 3.9
[4]; concentration of 2-3 mg/L, text summary of Table 1 (cultivated and wild ginseng)
  increment of the biomass (in words): remarkable increment
[4]; growth regulator 1 mg/L
  Cultivated ginseng (Increment rate of biomass): 5.3
[4]; growth regulator 2 mg/L
  Cultivated ginseng (Increment rate of biomass): 13.2
[4]; growth regulator 3 mg/L
  Cultivated ginseng (Increment rate of biomass): 11.4
[4]; growth regulator 5 mg/L
  Cultivated ginseng (Increment rate of biomass): 4.8

## jasmonic acid
[2]
  saponin content: 6.50
  triol/diol: 2.40

## c1ccc(CNc2ncnc3nc[nH]c23)cc1 [BA, benzyl adenine]
[2]
  saponin content: 1.23
  triol/diol: 1.63

## O=C(O)Cc1cccc2ccccc12 [NAA, naphthalemeacetic acid]
[3]; growth regulator 1 mg/L
  Wild ginseng (Increment rate of biomass): 3.4
[3]; growth regulator 2 mg/L
  Wild ginseng (Increment rate of biomass): 6.8
[3]; growth regulator 3 mg/L
  Wild ginseng (Increment rate of biomass): 6.2
[3]; growth regulator 5 mg/L
  Wild ginseng (Increment rate of biomass): 3.8
[4]; growth regulator 1 mg/L
  Cultivated ginseng (Increment rate of biomass): 3.2
[4]; growth regulator 2 mg/L
  Cultivated ginseng (Increment rate of biomass): 7.2
[4]; growth regulator 3 mg/L
  Cultivated ginseng (Increment rate of biomass): 6.7
[4]; growth regulator 5 mg/L
  Cultivated ginseng (Increment rate of biomass): 4.2

## C/C(=C\CNc1ncnc2[nH]cnc12)CO [zeatin]
[2]
  remarks: effect on the saponin components: zeatin show similar
